Test results taken from the supplement of paper PMC7224384.

Tests used:
[1] = system: MDA-MB-453; experiment: drug sensitivity score (DSS), single agent (DSS (weighted AUC score)); higher = more sensitive (stronger viability decrease); extreme values may be limits of the assay; settings: BLU9931 0 nM; 72 h
Outline: (§1)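 Each 384-well plate held compounds from the FIMM Oncology set, predispensed in singlicate at five 10-fold dilutions spanning a 10,000-fold range, and each well then received 2000 MDA-MB-453 cells in medium with or without an FGFR4 inhibitor at 100 nM final. Plates stayed at 37 °C, 5% CO2 for 72 h, after which cellular ATP was measured with CellTiterGlo 2.0. Readings were converted per plate into percent viability against control wells, and the drug sensitivity score was taken as a weighted area under a four-parameter logistic fit.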

[2] = system: MDA-MB-453; experiment: drug sensitivity score (DSS), in combination with BLU9931 (DSS (weighted AUC score)); higher = more sensitive (stronger viability decrease); extreme values may be limits of the assay; settings: BLU9931 100 nM; 72 h
Outline: as §1

| SMILES | drug sensitivity score [1] | drug sensitivity score [2] |
| --- | --- | --- |
| Cc1sc2c(c1C)C(c1ccc(Cl)cc1)=N[C@@H](CC(=O)Nc1ccc(OCCOCCOCCOCCNc3cccc4c3C(=O)N(C3CCC(=O)NC3=O)C4=O)cc1)c1nnc(C)n1-2 (some centres not stated) [ARV-825] | 10.1 | 10.7 |
| Nc1cccc2c1CN(C1CCC(=O)NC1=O)C2=O (configuration not stated) [Lenalidomide] | 0 | 0 |
| COc1nc(N)nc2c1ncn2[C@@H]1O[C@H](CO)[C@@H](O)[C@@H]1O [Nelarabine] | 1.3 | 1.5 |
| Nc1cccc2c1C(=O)N(C1CCC(=O)NC1=O)C2=O (configuration not stated) [Pomalidomide] | 0 | 0 |
| Cc1c(C(=O)Nc2ccc(N3C[C@@H](C)O[C@@H](C)C3)nc2)cccc1-c1ccc(OC(F)(F)F)cc1 [Sonidegib] | 5.8 | 1.4 |
| CCOCc1nc2c(N)nc3ccccc3c2n1CC(C)(C)O [Resiquimod] | 0.9 | 0 |
| N.N.[Cl][Pt][Cl] [Cisplatin] | 6.5 | 6.5 |
| CC[C@H](NC(=O)[C@H](C)NC)C(=O)N1C[C@@H](O)C[C@H]1Cc1c(-c2[nH]c3cc(F)ccc3c2C[C@@H]2C[C@H](O)CN2C(=O)[C@H](CC)NC(=O)[C@H](C)NC)[nH]c2cc(F)ccc12 [Birinapant] | 10.1 | 15.8 |
| CC1CCC(n2c3cnccc3c3cnc(Nc4ccc5c(n4)CCN(C(=O)CO)C5)nc32)CC1 (configuration not stated) [AMG-925] | 2.6 | 3.4 |
| Cc1cc(C(C)Nc2ccccc2)c2nc(N3CCOCC3)cc(=O)n2c1 (configuration not stated) [TGX-221] | 2.6 | 3.2 |
| CC(C)(C)c1cnc(CSc2cnc(NC(=O)C3CCNCC3)s2)o1 [SNS-032] | 18.1 | 19.1 |
| CCN(CC)CCCC(C)Nc1c2ccc(Cl)cc2nc2ccc(OC)cc12 (configuration not stated) [Mepacrine] | 16.2 | 14.7 |
| C=C1C[C@@H]2[C@H](CC[C@]3(C)C(=O)CC[C@@H]23)[C@@]2(C)C=CC(=O)C=C12 [Exemestane] | 4.8 | 0 |
| C[C@]12CC[C@H](O)CC1=CC[C@@H]1[C@@H]2CC[C@]2(C)C(c3cccnc3)=CC[C@@H]12 [Abiraterone] | 0 | 0 |
| NCC(=O)Nc1ccc(-n2nc(C(F)(F)F)cc2-c2ccc3c(ccc4ccccc43)c2)cc1 | 2.1 | 0 |
| Cn1c(Nc2ccc(C(F)(F)F)cc2)nc2cc(Oc3ccnc(-c4ncc(C(F)(F)F)[nH]4)c3)ccc21 [NVP-RAF265] | 1.7 | 1.1 |
| CC(C)N(CCCNC(=O)Nc1ccc(C(C)(C)C)cc1)C[C@H]1O[C@@H](n2cc(Br)c3c(N)ncnc32)[C@H](O)[C@@H]1O [SGC0946] | 0.9 | 0.1 |
| CCCCCCCCCCCCCCCCOP(=O)([O-])OCC[N+](C)(C)C [Miltefosine] | 2.7 | 3.9 |
| Cc1cc(F)c(C(=O)Nc2cccc(-c3nncn3C(C)C)n2)cc1-n1cnc(C2CC2)c1 [Selonsertib] | 0 | 0 |
| NS(=O)(=O)NCCNc1nonc1/C(=N/O)Nc1ccc(F)c(Br)c1 [Epacadostat] | 0 | 0 |
| CO[C@H]1C[C@@H]2CC[C@@H](C)[C@@](O)(O2)C(=O)C(=O)N2CCCC[C@H]2C(=O)O[C@H]([C@H](C)C[C@@H]2CC[C@@H](OP(C)(C)=O)[C@H](OC)C2)CC(=O)[C@H](C)/C=C(\C)[C@@H](O)[C@@H](OC)C(=O)[C@H](C)C[C@H](C)/C=C/C=C/C=C/1C [Ridaforolimus] | 9.5 | 14.7 |

| SMILES | drug sensitivity score [1] | drug sensitivity score [2] |
| --- | --- | --- |
| COc1cc(Br)c(Nc2nc(-c3c(C)nc4ncccn34)cs2)c(Br)c1 [PTC-209] | 3.2 | 2 |
| COc1cc(C)[nH]c(=O)c1CNC(=O)c1c(C)n([C@H](C)C2CCOCC2)c2ccccc12 [CPI-360] | 0 | 0 |
| COc1cc(C)c(/C=C/C(C)=C/C=C/C(C)=C/C(=O)O)c(C)c1C [Acitretin] | 0.2 | 0 |
| Nc1cc(COc2c(Cl)cc(C[C@H](N)C(=O)O)cc2Cl)c2oc(-c3ccccc3)nc2c1 [JPH203] | 3 | 1.4 |
| Cc1ccc(Nc2nccc(N(C)c3ccc4c(C)n(C)nc4c3)n2)cc1S(N)(=O)=O [Pazopanib] | 2.3 | 0 |
| O=C(Nc1c[nH]nc1-c1nc2ccc(CN3CCOCC3)cc2[nH]1)NC1CC1 [AT9283] | 2.3 | 2.3 |
| C[C@@H]1COC(Nc2ccc3ncnc(Nc4ccc(OCc5nccs5)c(Cl)c4)c3c2)=N1 [Varlitinib] | 6.3 | 9.1 |
| CNC(=O)c1ccccc1Nc1cc(Nc2ccc(N3CCOCC3)cc2OC)ncc1C(F)(F)F [VS-4718] | 1.9 | 0 |
| N#Cc1ccc(COC[C@H]2O[C@@H](n3c(NCc4ccc(Cl)c(Cl)c4)nc4c(N)ncnc43)[C@H](O)[C@@H]2O)cc1 | 4.9 | 4.2 |
| O=C(O)CC[C@H]1CC[C@@](c2cc(F)ccc2F)(S(=O)(=O)c2ccc(Cl)cc2)CC1 [MK-0752] | 0.1 | 0 |
| CCC(C)n1ncn(-c2ccc(N3CCN(c4ccc(OCC5COC(Cn6cncn6)(c6ccc(Cl)cc6Cl)O5)cc4)CC3)cc2)c1=O (configuration not stated) [Itraconazole] | 2.9 | 1.5 |
| O=C(NC[C@H](O)CN1CCc2ccccc2C1)c1cc(NC2COC2)ncn1 | 3.9 | 4.3 |
| N#CC[C@H](C1CCCC1)n1cc(-c2ncnc3[nH]ccc23)cn1 [Ruxolitinib] | 1.2 | 0 |
| CC1(COc2ccc3c(c2)ncn3-c2ccc3cccc(N4CCC(N)CC4)c3n2)COC1 [Crenolanib] | 7.5 | 6.5 |
| COc1cc2c(Oc3ccc(NC(=O)C4(C(=O)Nc5ccc(F)cc5)CC4)cc3F)ccnc2cc1OCCCN1CCOCC1 [Foretinib] | 1.1 | 1.2 |
| O=C(Nc1cccnc1)N1CCC(Cc2cccc(Oc3ccc(C(F)(F)F)cn3)c2)CC1 [PF-3845] | 1.8 | 2.2 |
| CC(C)C[C@H](NC(=O)[C@H](CCc1ccccc1)NC(=O)CN1CCOCC1)C(=O)N[C@@H](Cc1ccccc1)C(=O)N[C@@H](CC(C)C)C(=O)[C@@]1(C)CO1 [Carfilzomib] | 24.5 | 22.9 |
| c1cn2cc(-c3ccc4cn[nH]c4c3)nc(Nc3ccc(N4CCOCC4)cc3)c2n1 [Entospletinib] | 0 | 0 |
| O=C(NOC[C@H](O)CO)c1ccc(F)c(F)c1Nc1ccc(I)cc1F | 1.2 | 1.1 |
| COc1cc2c(N3CCN(C(=O)Nc4ccc(OC(C)C)cc4)CC3)ncnc2cc1OCCCN1CCCCC1 [Tandutinib] | 0 | 0 |
